Measurements as given in article PMC4971421, “Redox-Dependent Modulation of T-Type Ca^2+ Channels in Sensory Neurons Contributes to Acute Anti-Nociceptive Effect of Substance P” (Antioxidants & Redox Signaling, 2016).
Like-named read-outs stand apart in the source and are kept apart here.

Legend:
[1] = test system: T-type Ca^2+ channels (LVA Ca^2+ current) in DRG neurons; experiment: LVA (T-type) Ca2+ current, whole-cell patch clamp, cultured small-diameter DRG neurons; format: cell-based, rat; conditions: for effect on S9SP-mediated T-type current inhibition: 1 μM S9SP
Protocol: (§1) DRG neurons from adult male Sprague–Dawley rats (170–180 g) were dissociated as previously described ([13], [29]) and cultured in DMEM supplemented with GlutaMax I, 10% fetal calf serum, penicillin (50 U/ml), and streptomycin (50 μg/ml) on glass coverslips that were coated with poly-D-lysine for 2–5 days in a humidified incubator (37°C, 5% CO2). No growth factors were added to the culture media. HEK 293 cells were cultured in the same DMEM media; cells were passaged every 2 days. Human NK1 receptor (GenBank accession No. AY462098) complementary DNA (cDNA) was from the Missouri Science and Technology cDNA Resource Center. WtCaV3.1 (GenBank accession No. AF027984), wtCaV3.2 (GenBank accession No. AF051946), CaV3.1Q172H, and CaV3.2H191Q were kindly provided by Dr E. Perez-Reyes (University of Virginia). HEK293 cells were transfected using Lipofectamine 2000 (Invitrogen) according to the manufacturer's instructions. ST101 was synthesized in house; Z944 was from Toronto Research Chemicals; PTX was from Enzo Life Science; and FluoZin-3AM was from Life Technologies. All other chemicals were from Sigma.
All recordings were made using Multiclamp 700B amplifier in combination with pCLAMP 10.4 software (Molecular Devices). Voltage-clamp recordings from DRG neurons were made using whole-cell patch clamp. The standard bath solution contained the following (in mM): 150 TEA-Cl; 2.5 CsCl; 2.5 CaCl2; 10 HEPES; 0.5 MgCl2; and 10 glucose (pH 7.4 adjusted with CsOH). The standard pipette solution contained the following (in mM): 110 CsCl; 3 MgCl2; 10 EGTA; 10 HEPES; 3 Mg-ATP; and 0.6 GTP (pH 7.4 adjusted with CsOH). The access resistance was typically within 4–8 MΩ. T-type calcium currents (LVA) were measured by 50 ms square voltage pulses to −40 mV from a holding potential of −90 mV. HVA currents were measured by 200 ms square voltage pulses to 0 mV from a holding potential of −90 mV.
where y is the current inhibition; A1 and A2 are the maximum and minimum effects, respectively; x is the S9SP concentration; and nH is the Hill coefficient.

[2] = test system: intracellular zinc levels in DRG neurons; experiment: Intracellular zinc imaging with FluoZin-3AM; format: cell-based, rat; conditions: for effect on zinc levels elevated by ZnPy: in the presence of 10 μM ZnPy
Protocol: Changes in the intracellular zinc levels were evaluated using fluorescence imaging. DRG cultures were loaded with FluoZin-3AM (5 μM for 30 min at 37°C in the presence of 0.02% pluronic F-127). Cells were washed with extracellular bath solution composed of the following (in mM): 160 NaCl; 2.5 KCl; 2 CaCl2; 1 MgCl2; and 10 HEPES (pH 7.4 adjusted with NaOH); they were imaged using a Leica SP5 fluorescence imaging system assembled on a Leica DMI6000 microscope and illuminated with 488 nm light for 1200 ms (400 Hz) with a 2 s interval. Solutions were applied using a gravity perfusion system.

CaV3.2 = target: T1, CaV3.2 (Homo sapiens, UniProt O95180); experiment: Recombinant CaV3.2 current in HEK293 cells co-transfected with NK1 receptor, perforated patch; format: cell-based
T1 construct: expressed in transfected cells; host or cells: HEK293 cells, transient transfection with Lipofectamine 2000; The CaV3.2 cDNA was a gift of Dr E. Perez-Reyes; The NK1 cDNA was from the Missouri S&T cDNA Resource Center
T1 sequence (O95180 whole entry): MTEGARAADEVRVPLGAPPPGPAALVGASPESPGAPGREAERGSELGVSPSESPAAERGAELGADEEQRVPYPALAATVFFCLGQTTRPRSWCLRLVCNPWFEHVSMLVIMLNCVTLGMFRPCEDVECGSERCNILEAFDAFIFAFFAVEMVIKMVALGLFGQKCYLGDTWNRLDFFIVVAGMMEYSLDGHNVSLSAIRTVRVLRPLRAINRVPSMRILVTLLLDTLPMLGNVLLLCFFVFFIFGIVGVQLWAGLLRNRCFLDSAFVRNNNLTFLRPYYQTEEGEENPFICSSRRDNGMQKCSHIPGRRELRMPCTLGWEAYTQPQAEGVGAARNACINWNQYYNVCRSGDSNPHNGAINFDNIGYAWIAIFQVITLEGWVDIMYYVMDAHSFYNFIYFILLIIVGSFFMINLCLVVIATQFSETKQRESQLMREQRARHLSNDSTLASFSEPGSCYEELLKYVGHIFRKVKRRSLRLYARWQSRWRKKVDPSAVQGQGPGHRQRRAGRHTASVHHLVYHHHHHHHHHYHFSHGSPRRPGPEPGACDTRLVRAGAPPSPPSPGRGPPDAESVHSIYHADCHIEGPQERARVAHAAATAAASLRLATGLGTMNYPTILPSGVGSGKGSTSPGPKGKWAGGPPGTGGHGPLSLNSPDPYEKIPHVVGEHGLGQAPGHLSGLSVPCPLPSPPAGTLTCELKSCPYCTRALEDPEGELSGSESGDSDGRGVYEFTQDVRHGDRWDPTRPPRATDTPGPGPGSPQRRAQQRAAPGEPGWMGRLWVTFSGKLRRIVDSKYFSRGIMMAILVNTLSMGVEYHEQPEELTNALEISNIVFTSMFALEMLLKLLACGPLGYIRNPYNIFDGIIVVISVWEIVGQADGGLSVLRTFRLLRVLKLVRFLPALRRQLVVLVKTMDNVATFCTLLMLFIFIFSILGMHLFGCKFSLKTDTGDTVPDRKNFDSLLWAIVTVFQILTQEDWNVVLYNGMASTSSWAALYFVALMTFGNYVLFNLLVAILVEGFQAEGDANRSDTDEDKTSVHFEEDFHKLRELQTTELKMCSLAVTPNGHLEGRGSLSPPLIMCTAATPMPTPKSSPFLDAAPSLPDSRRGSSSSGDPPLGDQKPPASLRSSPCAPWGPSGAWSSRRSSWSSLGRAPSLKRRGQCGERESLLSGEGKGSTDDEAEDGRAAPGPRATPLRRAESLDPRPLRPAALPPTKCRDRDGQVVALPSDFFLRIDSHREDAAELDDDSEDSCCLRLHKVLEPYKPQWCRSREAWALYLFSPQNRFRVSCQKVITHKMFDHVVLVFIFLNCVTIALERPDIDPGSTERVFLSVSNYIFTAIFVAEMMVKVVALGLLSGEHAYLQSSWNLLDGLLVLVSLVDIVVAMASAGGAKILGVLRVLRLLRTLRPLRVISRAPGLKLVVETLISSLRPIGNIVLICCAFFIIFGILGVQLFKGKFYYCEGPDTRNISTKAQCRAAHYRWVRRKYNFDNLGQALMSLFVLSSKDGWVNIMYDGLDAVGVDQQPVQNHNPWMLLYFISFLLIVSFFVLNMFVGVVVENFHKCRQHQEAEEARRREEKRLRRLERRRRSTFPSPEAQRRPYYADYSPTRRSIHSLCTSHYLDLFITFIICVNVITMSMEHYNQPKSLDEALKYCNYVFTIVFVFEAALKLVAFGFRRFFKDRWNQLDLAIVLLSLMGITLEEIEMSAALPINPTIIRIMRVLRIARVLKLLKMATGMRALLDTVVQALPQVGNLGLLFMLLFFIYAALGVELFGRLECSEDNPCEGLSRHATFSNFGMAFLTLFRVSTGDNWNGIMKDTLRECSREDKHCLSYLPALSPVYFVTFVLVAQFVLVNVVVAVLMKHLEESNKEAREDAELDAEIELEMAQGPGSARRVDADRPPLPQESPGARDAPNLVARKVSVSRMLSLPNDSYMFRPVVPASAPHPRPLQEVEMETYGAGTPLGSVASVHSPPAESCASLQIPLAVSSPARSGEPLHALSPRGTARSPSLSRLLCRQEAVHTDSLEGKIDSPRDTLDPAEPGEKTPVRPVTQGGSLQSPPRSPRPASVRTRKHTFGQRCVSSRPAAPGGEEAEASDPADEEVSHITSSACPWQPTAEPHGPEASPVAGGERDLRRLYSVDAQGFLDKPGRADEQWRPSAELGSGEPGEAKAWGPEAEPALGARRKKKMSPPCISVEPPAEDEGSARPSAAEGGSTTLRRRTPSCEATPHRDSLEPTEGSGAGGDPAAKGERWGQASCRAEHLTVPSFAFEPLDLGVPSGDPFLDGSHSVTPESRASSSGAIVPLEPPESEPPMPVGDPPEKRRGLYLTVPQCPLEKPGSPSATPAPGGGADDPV
Protocol: as §1
In recordings from HEK 293 cells, amphotericin B-perforated patch-clamp technique was used ([13]). The pipette solution contained the following (in mM): 155 CsCl; 10 HEPES; 1 EGTA; and 4 MgCl2 supplemented with amphotericin B (250 μg/ml), pH 7.4 adjusted with CsOH. The bath solution was the same as for DRG neuron recordings. The access resistance was typically within 8–12 MΩ.
In experiments with H2O2, 3% agar-salt (3 M KCl) bridges were used. Concentration dependence of CaV3.2 channel inhibition by zinc was fit to the two-component logistic function:
where N0 is the total amount of zinc-binding sites, N0(max1) is the amount of high-affinity binding sites, N0(max2) is the amount of low-affinity binding sites, Imax is the maximal CaV3.2 peak current amplitude, IC50 is the [Zn^2+] necessary for half-maximal inhibition, and nH is the Hill coefficient. The concentration dependency of the S9SP effect was fit to the one-component logistic function: […]

rat hind paw [3] = experiment: Hargreaves test, paw withdrawal latency to noxious heat; format: in vivo; conditions: hind-paw injection 50 μl; 0.1–10 nmol/site; 8 min after injection
Protocol: For measurement of thermal hyperalgesia, the change in the latency of hind-paw withdrawal in response to noxious heat was recorded using the Hargreaves’ plantar method (Ugo Basile) at 8 min after the hind-paw injection of drugs; the heat source was set to 25% of the maximal intensity.

rat hind paw [4] = experiment: BK-induced nocifensive behavior, pre-injection protocol; format: in vivo; conditions: pre-injection 50 μl; 1–10 nmol/site, 5 min before BK 10 nmol/site
Protocol: Sprague–Dawley rats (body weight, 170–180 g) were grouped randomly and allowed to acclimate for at least 30 min in a transparent observation chamber before the experiment. Animals received a 50-μl intraplantar injection of ST101 (0.001–10 nmol/site), BK (10 nmol/site), RTG (1–10 nmol/site), Z944 (0.05–5 nmol/site), SP (0.5–5 nmol/site), or saline, respectively, into the right hind paw. For evaluation of the acute “spontaneous” pain, animals were video-recorded for 30 min after the injection and protective (“nocifensive”) behavior was analyzed as time spent licking, biting, lifting, and flinching the injected paw. The analyses were performed by an observer who was unaware of treatment allocations. In the pre-injection experiments, the right hind paw of the animal received a pre-injection of 50 μl Z944 (0.05–0.5 nmol/site), RTG (1–10 nmol/site), SP (0.5 nmol/site), Z944 (0.05–0.5 nmol/site)+RTG (1 nmol/site), or saline; 5 min later, on the same paw, the animal received a further 50-μl injection of BK (10 nmol/site) together with the pre-injection drug mix. Nocifensive behavior was analyzed as described earlier.
The in vivo CaV3.2 knock-down was performed as described earlier ([3]) by using the same ODN sequences that were synthesized by SBS Genetech. AS ODNs had the following sequence: […]. The mismatch ODNs of the following sequence were used as a negative control: […]. The mismatch ODN was not complementary to any known nucleotide sequence. ODNs were reconstituted in saline before injection. ODNs (12.5 μg/rat in 10 μl of saline) or saline were injected intrathecally (i.t.) between the L5 and L6 dorsal spinous processes as described earlier ([3], [42]) under isoflurane anesthesia. The treatment was repeated twice daily for 4 days. The pain tests were performed on the next day after the last injection. After behavioral testing, animals were humanly sacrificed; lumbar DRGs were extracted and analyzed for the knock-down efficiency by comparing the Cacna1h mRNA levels in lumbar (L4 to L6) DRGs of the saline-injected, mismatch ODN-injected, and AS ODN-injected animals using RT-PCR. The same Cacna1h and Gapdh primers as in siRNA experiments were used for RT-PCR.

## O[C@@H](CS)[C@@H](O)CS (racemic) [DTT, dithiothreitol]
[1]; 1 mM
  effect on LVA current amplitude on its own: did not significantly affect
[1]; 1 mM DTT before and during 1 μM S9SP
  prevention of S9SP effect on LVA current when applied together: rendered S9SP ineffective
[1]; 1 mM DTT in continued presence of 1 μM S9SP
  reversal of S9SP-induced LVA current inhibition: completely reversed
[1]; 1 mM DTT, 1 μM antimycin A
  reversal of antimycin A-induced LVA current inhibition: completely reversed
[1]; 1 mM DTT, 300 μM H2O2
  reversal of H2O2-induced LVA current inhibition: reversed
[2]; 1 mM
  effect on zinc levels elevated by ZnPy: did not alter the elevated zinc levels

## CN(C)CCCn1cc(C2=C(c3c[nH]c4ccccc34)C(=O)NC2=O)c2ccccc21 [BIM I, bisindolylmaleimide I]
[1]; 200 nM, 20 min pretreatment
  effect on S9SP-mediated T-type current inhibition: without a significant effect

## COc1ccccc1CN[C@H]1CCCN[C@H]1c1ccccc1.Cl.Cl [CP-99994, (2S,3S)-3-(2-Methoxybenzylamino)-2-phenylpiperidine dihydrochloride]
[1]; 3 μM, 30 min pre-incubation, co-applied with 1 μM S9SP
  effect on S9SP-induced LVA current inhibition: abolished the effect of S9SP

## OO [H2O2]
[1]; 300 μM bath application
  inhibition of LVA current: ~20%
CaV3.2; H2O2
  effect on recombinant CaV3.2: inhibited

## COCC(=O)O[C@]1(CCN(C)CCCc2nc3ccccc3[nH]2)CCc2cc(F)ccc2[C@@H]1C(C)C [MIB, mibefradil]
[1]; 3 μM
  sensitivity of LVA currents to inhibitor: sensitive

## CCOC(=O)Nc1ccc(NCc2ccc(F)cc2)cc1N [RTG, retigabine]
Rat hind paw [3]
  paw withdrawal latency on radiant heat exposure: produced a similar effect
Rat hind paw [4]
  BK-induced nociception: significantly attenuated

## CSCC[C@H](NC(=O)[C@H](CC(C)C)NC(=O)CN(C)C(=O)[C@H](Cc1ccccc1)NC(=O)[C@H](Cc1ccccc1)NC(=O)[C@H](CCC(N)=O)NC(=O)[C@H](CCC(N)=O)NC(=O)[C@@H]1CCCN1C(=O)[C@H](CCCCN)NC(=O)[C@@H]1CCCN1C(=O)[C@@H](N)CCCNC(=N)N)C(N)=O [S9SP, [Sar^9]-Substance P]
CaV3.2; 1 μM S9SP, wtCaV3.2, mean ± SEM, n = 13, SEM
  current amplitude in the presence of S9SP, % of basal value: 69.8% ± 6.8%

## c1ccc(CN(CCN(Cc2ccccn2)Cc2ccccn2)Cc2ccccn2)nc1 [TPEN, N,N,N′,N′-Tetrakis(2-pyridylmethyl)ethylenediamine]
[1]; 10 μM TPEN bath application, still in the presence of 1 μM S9SP
  reversal of S9SP-induced LVA current inhibition: completely reversed
CaV3.2
  effect on SP- and H2O2-induced inhibitions of recombinant CaV3.2: prevented
CaV3.2; 10 μM
  effect on CaV3.2 currents in control conditions: only marginal augmentation
[2]; 20 μM
  effect on zinc levels elevated by ZnPy: completely reversed the increase in fluorescence

## [Cl-].[Cl-].[Zn+2] [ZnCl2]
[1]; 750 nM, n = 9
  inhibition of LVA current: ~25%
CaV3.2; S9SP-treated cells (1 μM)
  maximal inhibition at the high-affinity site: 44.1% ± 5.1%
CaV3.2; after S9SP treatment, 1 μM S9SP in all ZnCl2 solutions, read-out: IC50(1), high-affinity site, zinc inhibition of CaV3.2
  IC50: 0.35 ± 0.25 nM
CaV3.2; after S9SP treatment, 1 μM S9SP in all ZnCl2 solutions, read-out: IC50(2), low-affinity site, zinc inhibition of CaV3.2
  IC50: 923 ± 582 nM
CaV3.2; control cells
  maximal inhibition at the high-affinity site: 9.9% ± 11.3%
CaV3.2; control conditions, two-component logistic fit, 6–12 experiments, read-out: IC50(1), high-affinity site, zinc inhibition of CaV3.2
  IC50: 0.25 nM
CaV3.2; control conditions, two-component logistic fit, 6–12 experiments, read-out: IC50(2), low-affinity site, zinc inhibition of CaV3.2
  IC50: 495 ± 326 nM
[2]; 1.5 mM
  intracellular zinc levels (FluoZin-3 fluorescence): large responses

## CCCCCC[C@H]1C(=O)O[C@H](C)[C@H](NC(=O)c2cccc(NC=O)c2O)C(=O)O[C@@H](C)[C@@H]1OC(=O)CC(C)C [antimycin A]
[1]; 1 μM
  inhibition of LVA current: ~25%

## Arg-Pro-Lys-Pro-Gln-Gln-Phe-Phe-Sar-Leu-Met[O2]-NH2 [S9M11SP, [Sar^9, Met(O2)^11]-Substance P]
[1]; 1 μM
  LVA current inhibition: quantitatively similar to that of S9SP

## pertussis toxin [PTX]
[1]; 400 ng/ml overnight pre-treatment
  effect on S9SP-mediated T-type current inhibition: completely abolished
